Measured values as given in US12377087B2, “Compounds for the treatment of cancer” (UNIVERSITY OF LOUISVILLE RESEARCH FOUNDATION, INC., priority 2015, dated 2025).

Legend:
H460 cells [1] = assay: Glycolysis assay (3H2O from 5-[3H]glucose) in H460 cells; assay type: cell-based, human; details: H460, indicated concentrations of MPN-2, 48 hours
Protocol: Cells growing in 6-well plates were incubated in 500 μl of complete medium containing 1 μCi of 5-[^3H]glucose per well for 60 min in 5% CO2 at 37° C. Media was collected, ^3H2O formed via glycolysis from the 5-[^3H]glucose measured and counts normalized as previously described. For example, the medium was then collected and centrifuged to pellet any suspended cells. To separate the ^3H2O formed via glycolysis from the 5-[^3H]glucose added to the medium, an evaporation technique in a sealed system was utilized. Briefly, 150 μl aliquots of medium were added to open tubes that were placed upright inside scintillation vials containing 1 ml of H2O. The scintillation vials were sealed, and the ^3H2O produced by glycolysis through enolase and released to the medium was allowed to equilibrate with the H2O in the outer vial for 48 h at 37° C. The amounts of ^3H2O that had diffused into the surrounding H2O was measured on a Tri-Carb 2910 liquid scintillation analyzer (Perkin Elmer) and compared with ^3H2O and 5-[^3H]glucose standards. Protein concentration was determined using the BCA assay and counts were normalized to protein concentration. All data are expressed as the mean±SD of three experiments. Statistical significance was assessed by the two-sample t test (independent variable).

H460 cells [2] = assay: ATP measurements in H460 cells; assay type: cell-based, human; details: H460, indicated concentrations of MPN-2, 48 hours
Protocol: Cells were lysed and intracellular ATP determined as described previously. For example, cells were washed (while still adherent) with cold PBS 1×, lysed with Passive Lysis Buffer (1×; Molecular Probes, Invitrogen) added directly to the plates, and immediately harvested by scraping. The lysates were flash frozen (to −80° C.) and thawed (to 37° C.) once to accomplish complete lysis and then centrifuged (at 4° C.) for 30 seconds to clear the lysates. Intracellular ATP levels were determined using a bioluminescence assay (Molecular Probes), utilizing recombinant firefly luciferase and its substrate, D-luciferin. The luminescence was read in a TD-20/20 luminometer (Turner Designs) at 560 nm. The ATP values were calculated using an ATP standard curve. The protein concentrations of the lysates were estimated using the BCA assay (Pierce Biotechnology) and ATP was expressed as pmol/μg protein. All data are expressed as the mean±SD of three experiments. Statistical significance was assessed by the two-sample t test (independent variable).

Lewis lung carcinomas = assay: Lewis lung carcinoma tumor growth in mice; assay type: in vivo, C57BL/6 mice; details: C57BL/6 mice, intraperitoneal injection 10 mg/kg daily, eleven days
H460 cells [3] = assay: proliferation / viable cell count (trypan blue) of H460 cells; assay type: cell-based, human; details: for proliferation of H460 NSCLC cells, viable cells by Trypan blue exclusion: increasing concentrations, counts at 48 hours shown
Protocol: Cell Viability: Cells were incubated in 20% trypan blue (Sigma) for 5 minutes. Cells excluding trypan blue were counted using a standard hemocytometer (Hausser Scientific) to determine total numbers of viable cells. Data are expressed as mean±SD of three experiments. Proliferation Assays: H460 non-small cell lung cancer cells were plated in 24 well plates and exposed to increasing concentrations of the indicated inhibitors of Formula IV (FBR1-02 corresponds to [drawing 47] DMSO was used as vehicle. After 24, 48 and 72 hours of exposure, cells were detached and viable cells were counted by Trypan blue exclusion (representative counts at 48 hours shown).

H460 cells [4] = assay: F2,6BP measurements in H460 cells; assay type: cell-based, human; details: H460, indicated concentrations of MPN-2
Protocol: F2,6BP measurements: Cells or tissues were prepared as previously described and F2,6BP content measured using a coupled enzyme reaction following the method of Van Schaftingen et at (Van Schaftingen E et al. A kinetic study of pyrophosphate: fructose-6-phosphate phosphotransferase from potato tubers. Application to a microassay of fructose 2,6-bisphosphate. Eur J Biochem 1982 December; 129(1): 191-5) and normalized to total cellular protein measured by the bicinchoninic acid assay (BCA, Thermo Scientific). […] In order to measure F2,6BP, cells were harvested, washed with PBS, lysed in NaOH/Tris acetate by heating at 80° C. and lysates neutralized to pH 7.2. F2,6BP content was measured using a coupled enzyme reaction following the method of Van Schaftingen et al (Eur J Biochem. 1982; 129(1): 191-195). The F2,6BP concentration was normalized to total cellular protein measured by the bicinchoninic acid assay (BCA, Thermo Scientific) All data are expressed as the mean±SD of three experiments. Statistical significance was assessed by the two-sample t test (independent variable).

[5] = oral and intravenous pharmacokinetics of MPN-2; assay type: in vivo; details: CD-1 mice (N=3)
SK-BR-3 = assay: proliferation of SK-BR-3 cells; assay type: cell-based; details: SK-BR-3, 24-72 hours (72 hours shown)
Protocol: Cell Viability: Cells were incubated in 20% trypan blue (Sigma) for 5 minutes. Cells excluding trypan blue were counted using a standard hemocytometer (Hausser Scientific) to determine total numbers of viable cells. Data are expressed as mean±SD of three experiments.

For “5-[(8-methoxy-2-methylquinolin-1-ium-4-yl)amino]pentyl nitrate [MPN-2]”, the intracellular glycolysis (H460 cells [1]) was “significantly decreased”, the ATP production (H460 cells [2]) was “significantly decreased” and the “tumor growth of Lewis lung carcinomas” value (Lewis lung carcinomas) was “suppressed the growth”. For the same compound, the proliferation (H460 cells [3]; H460, 24-72 hours (72 hours shown)) was “decreased proliferation”, the “proliferation, viable cells” value (H460 cells [3]; H460 NSCLC, 48 hours and 72 hours) was “decreased the proliferation” and the “F2,6BP production” value (H460 cells [4]) was “significantly inhibited”. For the same compound, the oral bioavailability [5] was “high oral bioavailability” and the proliferation (SK-BR-3) was “decreased proliferation”.
In the case of `O=[N+]([O-])OCCCCCNc1ccnc2ccccc12` [FBR1-02], the “proliferation of H460 NSCLC cells, viable cells by Trypan blue exclusion” value (H460 cells [3]) is reported as “decreased proliferation of cancer cells”.
With `COc1cccc2c(NCCCCCNS(C)(=O)=O)ccnc12` [FBR1-09] the “proliferation of H460 NSCLC cells, viable cells by Trypan blue exclusion” value (H460 cells [3]) was “decreased proliferation of cancer cells”.
